Patent US20220128542A1, “TREATMENT EFFICIENCY EVALUATION” (TX MEDIC AB, priority 2019, published 2022)

Test system: brain of rats subjected to closed-head diffuse severe TBI (sTBI)
Assay: HPLC of free amino acids and amino group containing compounds in brain, dose study after sTBI (Example 3)
Assay type: in vivo, rat
Source text: Male Wistar rats (n=160) of 300-350 g body weight were used in this study.
1994, 80: 291-300. This model causes diffuse axonal injury and it is able to reproduce the physical and mechanical characteristics of the diffuse TBI in humans.
Rats were placed prone on a bed of specific polyurethane foam inserted in a special container. This foam dissipates the major part of the potential energy (deriving from the mechanical forces) and prevents any rebound of the animal after the impact that could produce spinal damages.
These time points are coincident with the worst biochemical derangement (2 days) or, in the case of a mildly injured brain, with a full metabolic recovery (7 days).
The drug treatment consisted in a subcutaneous injection of 0.5 ml of LMW-DS (Tikomed) and administered at 3 different concentrations (1, 5 and 15 mg/kg body weight), according to the schematic protocol described below.
Sham-operated animals underwent the same procedure of anesthesia but TBI and were used as the control group.
Rats used in this study were divided into 4 groups in order to carry out a study on the efficacy of three different concentrations of LMW-DS at two different times post TBI. As subsequently specified, in each group there were animals subjected to a specific treatment for metabolic analyses and other animals intended to histo-morphological studies, according to the procedures described below.
Rats subjected to sTBI and receiving a single administration of LMW-DS after 30 minutes post-TBI, with sacrifice at 2 days post-TBI. Animals were divided in the following subgroups:
Rats subjected to sTBI and receiving a single administration of LMW-DS after 30 minutes post-TBI, with sacrifice at 7 days post-TBI. Animals were divided in the following subgroups:
Rats (n=12) subjected to sTBI and receiving repeated administrations of the maximal dose of LMW-DS (15 mg/kg b.w.) after 30 minutes, 3 days and 5 days post-TBI, with sacrifice at 7 days post-TBI. Four additional rats were used for the histo-morphological studies. Total rats in this group: n=16
To minimize metabolite loss, an in vivo craniectomy was performed in all animals during anesthesia. The rat skull was carefully removed, the brain was exposed, sharply cut along the sagittal fissure and the two hemispheres were separated. The hemispheres dedicated to biochemical analyses were freeze-clamped by aluminum tongues pre-cooled in liquid nitrogen and then immersed in liquid nitrogen. The freeze-clamping procedure was introduced to accelerate freezing of the tissue, thus minimizing potential metabolite loss.
Tissue homogenization for metabolite analyses was effected as described below. After the wet weight (w.w.) determination, the frozen hemispheres were placed into 7 ml of ice-cold, nitrogen-saturated, precipitating solution (1:10 w/v) composed by CH3CN+10 mM KH2PO4, pH 7.40, (3:1; v:v), and the homogenization was performed using an Ultra-Turrax homogenizer set at 24,000 rpm/min (Janke & Kunkel, Staufen, Germany). After centrifugation at 20,690×g, for 10 min at 4° C., the clear supernatants were saved, pellets were supplemented with an aliquot of 10 mM KH2PO4 and homogenized again as described above and saved overnight at −20° C. in order to obtain a complete recovery of aqueous phase from tissue. A second centrifugation was performed (20,690×g, for 10 min at 4° C.) and supernatants combined with those previously obtained were extracted by vigorous agitation with a double volume of HPLC-grade CHCl3 and centrifuged as above.

[1] = rats 2 days post-TBI, single 1 mg/kg b.w. 30 min after trauma
[2] = rats 2 days post-TBI, single 5 mg/kg b.w. 30 min after trauma
[3] = rats 2 days post-TBI, single 15 mg/kg b.w. 30 min after trauma
[4] = rats 7 days post-sTBI, repeated 15 mg/kg b.w.
[5] = rats 7 days post-sTBI, single 1 mg/kg b.w.
[6] = rats 7 days post-sTBI, single 5 mg/kg b.w.
[7] = rats 7 days post-sTBI, single 15 mg/kg b.w.

## sodium salt of dextran sulfate [LMW-DS]
2 days post-TBI
  isoleucine (ILE): restored
  osmolyte and aromatic free amino acids: No remarkable effects
2 days post-TBI, any dose tested
  methionine: Restoration
7 days after injury
  TAU concentrations: normalized
7 days post impact, highest dose, single or repeat
  L-Cystathionine (L-Cystat): significant increase
7 days post injury, 15 mg/kg b.w. single or repeat
  GLU: normalization
[1]
  ARG concentration in brain homogenate: 0.13 ± 0.03 nmol/g w.w.
  ASN concentration in brain homogenate: 0.13 ± 0.02 µmol/g w.w.
  ASP concentration in brain homogenate: 4.17 ± 0.99 nmol/g w.w.
  GABA concentration in brain homogenate: 1.87 ± 0.17 µmol/g w.w.
  GLN concentration in brain homogenate: 4.37 ± 0.59 µmol/g w.w.
  GLU concentration in brain homogenate: 12.5 ± 0.91 µmol/g w.w.
  GLY concentration in brain homogenate: 1.35 ± 0.26 nmol/g w.w.
  LYS concentration in brain homogenate: 0.29 ± 0.11 µmol/g w.w.
  MET concentration in brain homogenate: 0.04 ± 0.01 µmol/g w.w.
  ORN concentration in brain homogenate: 0.02 ± 0.01 µmol/g w.w.
  SAH concentration in brain homogenate: 0.07 ± 0.02 nmol/g w.w.
  TAU concentration in brain homogenate: 4.98 ± 0.47 nmol/g w.w.
  THR concentration in brain homogenate: 0.70 ± 0.15 nmol/g w.w.
  TRP concentration in brain homogenate: 0.02 ± 0.01 µmol/g w.w.
  TYR concentration in brain homogenate: 0.18 ± 0.03 nmol/g w.w.
  VAL concentration in brain homogenate: 0.07 ± 0.03 µmol/g w.w.
[2]
  ARG concentration in brain homogenate: 0.13 ± 0.03 nmol/g w.w.
  ASP concentration in brain homogenate: 4.15 ± 0.95 nmol/g w.w.
  GABA concentration in brain homogenate: 1.99 ± 0.18 µmol/g w.w.
  GLN concentration in brain homogenate: 4.55 ± 0.44 µmol/g w.w.
  GLY concentration in brain homogenate: 1.43 ± 0.28 nmol/g w.w.
  L-Cystat concentration in brain homogenate: 0.31 ± 0.06 µmol/g w.w.
  LYS concentration in brain homogenate: 0.37 ± 0.14 µmol/g w.w.
  ORN concentration in brain homogenate: 0.01 ± 0.01 µmol/g w.w.
  SAH concentration in brain homogenate: 0.07 ± 0.02 nmol/g w.w.
  TAU concentration in brain homogenate: 5.15 ± 0.49 nmol/g w.w.
  THR concentration in brain homogenate: 0.77 ± 0.17 nmol/g w.w.
  TRP concentration in brain homogenate: 0.03 ± 0.01 µmol/g w.w.
  TYR concentration in brain homogenate: 0.20 ± 0.03 nmol/g w.w.
  VAL concentration in brain homogenate: 0.08 ± 0.03 µmol/g w.w.
[3]
  ARG concentration in brain homogenate: 0.16 ± 0.04 nmol/g w.w.
  ASP concentration in brain homogenate: 3.05 ± 0.42 nmol/g w.w.
  GLN concentration in brain homogenate: 4.21 ± 0.51 µmol/g w.w.
  GLY concentration in brain homogenate: 1.18 ± 0.23 nmol/g w.w.
  LEU concentration in brain homogenate: 0.04 ± 0.01 µmol/g w.w.
  LYS concentration in brain homogenate: 0.32 ± 0.12 µmol/g w.w.
  MET concentration in brain homogenate: 0.03 ± 0.01 µmol/g w.w.
  ORN concentration in brain homogenate: 0.02 ± 0.01 µmol/g w.w.
  SAH concentration in brain homogenate: 0.06 ± 0.02 nmol/g w.w.
  TAU concentration in brain homogenate: 4.59 ± 0.43 nmol/g w.w.
  THR concentration in brain homogenate: 0.61 ± 0.13 nmol/g w.w.
  TYR concentration in brain homogenate: 0.17 ± 0.03 nmol/g w.w.
  VAL concentration in brain homogenate: 0.06 ± 0.03 µmol/g w.w.
[4]
  ALA concentration in brain homogenate: 0.47 ± 0.05 µmol/g w.w.
  ASN concentration in brain homogenate: 0.1 ± 0.02 µmol/g w.w.
  ASP concentration in brain homogenate: 2.42 ± 0.39 nmol/g w.w.
  CITR concentration in brain homogenate: 0.03 ± 0.01 µmol/g w.w.
  GABA concentration in brain homogenate: 1.38 ± 0.14 µmol/g w.w.
  GLN concentration in brain homogenate: 3.88 ± 0.4 µmol/g w.w.
  GLY concentration in brain homogenate: 0.78 ± 0.10 nmol/g w.w.
  HYS concentration in brain homogenate: 0.06 ± 0.01 µmol/g w.w.
  ILE concentration in brain homogenate: 0.03 ± 0.01 µmol/g w.w.
  LEU concentration in brain homogenate: 0.04 ± 0.01 µmol/g w.w.
  LYS concentration in brain homogenate: 0.23 ± 0.07 µmol/g w.w.
  ORN concentration in brain homogenate: 0.02 ± 0.01 µmol/g w.w.
  SAH concentration in brain homogenate: 0.04 ± 0.04 nmol/g w.w.
  TAU concentration in brain homogenate: 3.47 ± 0.44 nmol/g w.w.
  THR concentration in brain homogenate: 0.77 ± 0.14 nmol/g w.w.
  TYR concentration in brain homogenate: 0.14 ± 0.02 nmol/g w.w.
  VAL concentration in brain homogenate: 0.07 ± 0.01 µmol/g w.w.
[5]
  ALA concentration in brain homogenate: 0.57 ± 0.06 µmol/g w.w.
  ARG concentration in brain homogenate: 0.13 ± 0.02 nmol/g w.w.
  ASN concentration in brain homogenate: 0.1 ± 0.02 µmol/g w.w.
  ASP concentration in brain homogenate: 4.17 ± 0.67 nmol/g w.w.
  CITR concentration in brain homogenate: 0.03 ± 0.01 µmol/g w.w.
  GABA concentration in brain homogenate: 1.73 ± 0.18 µmol/g w.w.
  GLN concentration in brain homogenate: 4.1 ± 0.42 µmol/g w.w.
  GLU concentration in brain homogenate: 12.1 ± 1.02 µmol/g w.w.
  GLY concentration in brain homogenate: 0.98 ± 0.20 nmol/g w.w.
  HYS concentration in brain homogenate: 0.06 ± 0.01 µmol/g w.w.
  L-Cystat concentration in brain homogenate: 0.24 ± 0.04 µmol/g w.w.
  LYS concentration in brain homogenate: 0.19 ± 0.06 µmol/g w.w.
  MET concentration in brain homogenate: 0.03 ± 0.01 µmol/g w.w.
  ORN concentration in brain homogenate: 0.01 ± 0.01 µmol/g w.w.
  SAH concentration in brain homogenate: 0.04 ± 0.01 nmol/g w.w.
  SER concentration in brain homogenate: 0.92 ± 0.16 µmol/g w.w.
  TAU concentration in brain homogenate: 4.02 ± 0.51 nmol/g w.w.
  THR concentration in brain homogenate: 0.71 ± 0.12 nmol/g w.w.
  TYR concentration in brain homogenate: 0.13 ± 0.02 nmol/g w.w.
  VAL concentration in brain homogenate: 0.08 ± 0.01 µmol/g w.w.
[6]
  ALA concentration in brain homogenate: 0.44 ± 0.05 µmol/g w.w.
  ARG concentration in brain homogenate: 0.15 ± 0.02 nmol/g w.w.
  ASN concentration in brain homogenate: 0.1 ± 0.02 µmol/g w.w.
  ASP concentration in brain homogenate: 3.63 ± 0.59 nmol/g w.w.
  CITR concentration in brain homogenate: 0.03 ± 0.01 µmol/g w.w.
  GLN concentration in brain homogenate: 3.86 ± 0.4 µmol/g w.w.
  GLU concentration in brain homogenate: 11.8 ± 0.99 µmol/g w.w.
  GLY concentration in brain homogenate: 0.88 ± 0.15 nmol/g w.w.
  HYS concentration in brain homogenate: 0.06 ± 0.01 µmol/g w.w.
  L-Cystat concentration in brain homogenate: 0.26 ± 0.04 µmol/g w.w.
  LYS concentration in brain homogenate: 0.21 ± 0.04 µmol/g w.w.
  MET concentration in brain homogenate: 0.04 ± 0.01 µmol/g w.w.
  TAU concentration in brain homogenate: 3.51 ± 0.44 nmol/g w.w.
  THR concentration in brain homogenate: 0.71 ± 0.15 nmol/g w.w.
  TRP concentration in brain homogenate: 0.02 ± 0.01 µmol/g w.w.
  TYR concentration in brain homogenate: 0.13 ± 0.02 nmol/g w.w.
  VAL concentration in brain homogenate: 0.08 ± 0.01 µmol/g w.w.
[7]
  ALA concentration in brain homogenate: 0.38 ± 0.04 µmol/g w.w.
  ARG concentration in brain homogenate: 0.14 ± 0.02 nmol/g w.w.
  ASN concentration in brain homogenate: 0.1 ± 0.02 µmol/g w.w.
  CITR concentration in brain homogenate: 0.03 ± 0.01 µmol/g w.w.
  GABA concentration in brain homogenate: 1.43 ± 0.15 µmol/g w.w.
  GLN concentration in brain homogenate: 3.73 ± 0.38 µmol/g w.w.
  GLU concentration in brain homogenate: 10.2 ± 0.86 µmol/g w.w.
  GLY concentration in brain homogenate: 0.78 ± 0.12 nmol/g w.w.
  HYS concentration in brain homogenate: 0.06 ± 0.01 µmol/g w.w.
  L-Cystat concentration in brain homogenate: 0.25 ± 0.04 µmol/g w.w.
  LYS concentration in brain homogenate: 0.21 µmol/g w.w.
  MET concentration in brain homogenate: 0.04 ± 0.01 µmol/g w.w.
  SAH concentration in brain homogenate: 0.04 ± 0.01 nmol/g w.w.
  SER concentration in brain homogenate: 0.76 ± 0.12 µmol/g w.w.
  TAU concentration in brain homogenate: 3.38 ± 0.44 nmol/g w.w.
  THR concentration in brain homogenate: 0.72 ± 0.14 nmol/g w.w.
  TYR concentration in brain homogenate: 0.14 ± 0.02 nmol/g w.w.
